In ChEMBL document CHEMBL2146411, “Discovery of 3H-imidazo[4,5-c]quinolin-4(5H)-ones as potent and selective dipeptidyl peptidase IV (DPP-4) inhibitors” (Bioorg Med Chem, 2012):

Target: Dipeptidyl peptidase 4 (Bos taurus, UniProt P81425)
Sequence (P81425 whole entry): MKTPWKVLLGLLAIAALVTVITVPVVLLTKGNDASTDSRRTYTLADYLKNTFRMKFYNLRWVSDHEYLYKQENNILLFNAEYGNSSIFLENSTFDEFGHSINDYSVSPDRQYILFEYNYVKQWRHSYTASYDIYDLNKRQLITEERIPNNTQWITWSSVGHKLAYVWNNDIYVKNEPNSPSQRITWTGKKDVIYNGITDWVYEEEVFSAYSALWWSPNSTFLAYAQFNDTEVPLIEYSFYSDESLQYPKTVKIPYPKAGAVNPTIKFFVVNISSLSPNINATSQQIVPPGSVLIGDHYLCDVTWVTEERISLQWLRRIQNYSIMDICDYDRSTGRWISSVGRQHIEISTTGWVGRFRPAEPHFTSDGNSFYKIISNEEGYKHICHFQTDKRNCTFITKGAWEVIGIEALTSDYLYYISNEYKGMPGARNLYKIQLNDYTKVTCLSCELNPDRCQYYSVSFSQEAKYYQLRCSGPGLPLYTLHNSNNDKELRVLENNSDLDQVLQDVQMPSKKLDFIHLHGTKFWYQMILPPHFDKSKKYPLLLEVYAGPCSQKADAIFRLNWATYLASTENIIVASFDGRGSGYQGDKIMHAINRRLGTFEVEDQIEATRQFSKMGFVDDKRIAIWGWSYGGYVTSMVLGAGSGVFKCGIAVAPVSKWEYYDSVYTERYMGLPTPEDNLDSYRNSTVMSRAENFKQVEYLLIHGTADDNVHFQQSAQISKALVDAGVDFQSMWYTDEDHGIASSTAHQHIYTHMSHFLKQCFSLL
Description: Inhibition of bovine DPP4 by HTS assay

Structure (SMILES): CC(C)=CCn1c(N2CCNCC2)nc2c1c(=O)[nH]c(=O)n2C
- IC50: 676 nM
